{"source": "patent US20180340012A1", "about": "“METHODS AND CO[…] TO IMPROVING PROPERTIES OF PHARMACOLOGICAL AGENTS TARGETING NERVOUS SYSTEM” (University of Utah Research Foundation, priority 2006, published 2018)", "key": {"6 Hz limbic seizures": {"test_system": "6 Hz limbic seizures", "assay": "6 Hz limbic (psychomotor) seizure test", "format": "in vivo, CF-1 mice", "text": "Mice not displaying limbic seizures were considered protected."}, "[1]": {"test_system": "formalin-induced paw licking", "assay": "Mouse formalin test", "format": "in vivo", "experimental": "An injection of 0.5% formalin is made into the planter region of a mouse right hind paw. This elicits a distinct biphasic behavioral profile characterized by the mouse licking the affected paw. Immediately following the injection the mouse licks the paw for about 10 minutes. This is phase 1 (acute) and is followed by a brief latent period where there is little behavioral activity. A more prolonged period of about 20 to 30 minutes of paw licking ensues which constitutes phase 2 (inflammatory).\nPrior to the administration of the active peptide, drug or vehicle each mouse undergoes a 15-minute conditioning period in one of several 6″ tall plexiglass observation tubes (4″ diameter) that are placed in front of a mirror. […] One hour after treatment, formalin was injected sub-dermally (20 μl; 27 gauge needle) into the plantar surface of the right hind foot. The bevel of the needle is placed facing down toward the skin surface. Following the injection of the formalin each animal is observed for first 2 minutes of each 5 minute epoch for a total of 45 minutes. The cumulative length of licking for each 2 minute time period was measured. An animal receiving the requisite volume of vehicle was alternated with each mouse given GAL-BBB2, Gal 1-16, or gabapentin. Animals were euthanized following the conclusion of the experiment.\nArea under the curve (AUC) determination was made using the GraphPad Prism Version 3.03. Total AUC is calculated for both the test and control groups for both the acute and inflammatory phases. The AUC for individual animals for each phase is also calculated and converted to percentage of total AUC of control. The average percentages and SEM for both the drug treated and control were calculated and tested for significant difference."}}, "note": "Entries after “also recorded” stand apart in the source; their conditions may differ.", "data": [{"substance": "Sar-Trp-Thr-Leu-Asn-Ser-Ala-Gly-Tyr-Leu-Leu-Gly-Pro-Lys-Lys-(Lys-palm)-Lys-NH2 [NAX 5055]", "values": [{"measurement": "activity in pharmaco-resistant seizure model", "setting": "6 Hz limbic seizures; 4 mg/kg", "result": "active"}, {"measurement": "% Protection at 1 hour", "setting": "6 Hz limbic seizures; 4 mg/kg, i.p., 1 h, model not printed at tables, ED50s of same analogs called 6 Hz model", "result": 100, "unit": "%"}, {"measurement": "% Protection at 2 hours", "setting": "6 Hz limbic seizures; 4 mg/kg, i.p., 2 h", "result": 100, "unit": "%"}, {"measurement": "% Protection at 4 hours", "setting": "6 Hz limbic seizures; 4 mg/kg, i.p., 4 h", "result": 0, "unit": "%"}, {"measurement": "potency and efficacy compared with native peptide", "setting": "6 Hz limbic seizures; 6 Hz (32 mA) test", "result": "more potent and more efficacious"}, {"measurement": "ED50 in the 6 Hz model", "setting": "6 Hz limbic seizures; i.p.", "result": 0.8, "unit": "mg/kg"}, {"measurement": "dose in parentheses in Table 14 (ED50)", "setting": "6 Hz limbic seizures; i.p., not labelled in table", "result": 0.8, "unit": "mg/kg"}, {"measurement": "ED50 following i.c.v. administration", "setting": "6 Hz limbic seizures; intracerebroventricular, 6 Hz (32 mA) test, FIG. 22", "result": 0.07, "unit": "nmol"}, {"measurement": "anticonvulsant activity following subcutaneous administration", "setting": "6 Hz limbic seizures; s.c., 32 mA, 6 Hz, 60 min after injection", "result": "preserved; also recorded: retained"}, {"measurement": "effect of 5 mg/kg compared with 10 mg/kg gabapentin", "setting": "[1]; 5 mg/kg i.p.", "result": "equivalent"}, {"measurement": "paw licking, acute and inflammatory phase", "setting": "[1]; 0.52-5 mg/kg i.p., 60 min before formalin", "result": "dose-dependent reduction"}, {"measurement": "Active at (flat phase II)", "setting": "[1]; mouse formalin assay of inflammatory pain", "result": "5 mg/kg (“flat phase II”)"}]}]}
